Results on 25 compounds are retold here after US20110166121A1 (LG LIFE SCIENCES LTD., priority 2008, published 2011).

Assay [1] concerns Human platelet aggregation caused by ADP. Put plainly: Inhibition of ADP-induced platelet aggregation (Mimic-human PRP). The format is cell-based. Conditions: 20 μM ADP, human platelet concentrate diluted with PPP, absorption at 595 nm. An outline of the steps:
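Human PRP diluted with PPP to 3–4×10^8 platelets/mL was preincubated 20 min at room temperature with compound (0.01–30 μM, DMSO), then stimulated with 20 μM ADP. Aggregation read as A595 increase at 3 min versus 0 and 20 μM ADP controls; Ki from sigmoidal non-linear regression.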

In assay [2] the target is T1, Human P2Y12 receptor (Homo sapiens, UniProt Q9H244).
T1 construct: expressed in transfected cells; host or cells: HEK cells
Put plainly: Human P2Y12 receptor cell membrane binding assay with [3H] 2-Mes-ADP. The settings on record: 1 nM [3H] 2-Mes-ADP, membranes of HEK cells expressing P2Y12 receptor; read-out: Binding activity (IC50). An outline of the steps: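 Membranes from HEK cells expressing human P2Y12 were incubated with compound and 1 nM [3H]2-MeS-ADP for 1 h at room temperature. Bound radioactivity was collected by GF/B filtration.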

T1 sequence (Q9H244 whole entry): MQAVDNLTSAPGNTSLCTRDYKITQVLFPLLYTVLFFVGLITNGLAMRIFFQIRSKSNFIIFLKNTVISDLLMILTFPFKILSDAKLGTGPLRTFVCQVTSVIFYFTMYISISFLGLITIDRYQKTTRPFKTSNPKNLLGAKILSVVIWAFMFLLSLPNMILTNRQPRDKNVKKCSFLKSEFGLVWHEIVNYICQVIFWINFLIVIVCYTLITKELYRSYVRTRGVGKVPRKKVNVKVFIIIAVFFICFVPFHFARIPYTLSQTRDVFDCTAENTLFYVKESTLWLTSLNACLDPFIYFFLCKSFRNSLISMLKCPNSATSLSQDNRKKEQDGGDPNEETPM

Turning to `CCCc1cc2c(N3CCn4c(nnc4C(F)(F)F)C3)nc(N3CCC[C@H](N)C3)nc2s1` [Example 1-125, (S)-1-[6-Propyl-4-(3-trifluoromethyl-5,6-dihydro-8H-[1,2,4]triazolo[4,3-a]pyrazin-7-yl)-thieno[2,3-d]pyrimidin-2-yl]-piperidin-3-ylamine], the Ki (commonly a measure of affinity in units of concentration, obtained from inhibition or displacement) in assay [1] came to 45 nM. Besides, in assay [2], the IC50 – broadly, the concentration needed to halve the response being measured – was determined as 150 nM.

As to `CCCc1cc2c(N3CCn4c(nnc4C(F)(F)F)C3)nc(N[C@H]3CCNC3)nc2s1` [Example 1-126, [6-Propyl-4-(3-trifluoromethyl-5,6-dihydro-8H-[1,2,4]triazolo[4,3-a]pyrazin-7-yl)-thieno[2,3-d]pyrimidin-2-yl]-(S)-pyrrolidin-3-yl-amine], the Ki in assay [1] amounted to 29 nM. Moreover, the IC50 in assay [2] was found to be 130 nM.

As for `CCCc1cc2c(N3CCn4c(nnc4C(F)(F)F)C3)nc(N3CCC(C(=O)NS(=O)(=O)Cc4ccccc4)CC3)nc2s1` [Example 1-127, C-Phenyl-N-{1-[6-propyl-4-(3-trifluoromethyl-5,6-dihydro-8H-[1,2,4]triazolo[4,3-a]pyrazin-7-yl)-thieno[2,3-d]pyrimidin-2-yl]-piperidine-4-carbonyl}-methanesulfonamide], the Ki in assay [1] was found to be 900 nM. Moreover, in assay [2], the IC50 turned out to be 100 nM.

In assay [1], `CCCc1cc2c(N3CCn4c(nnc4C(F)(F)F)C3)nc(NCCN3CSCC3=O)nc2s1` [Example 1-128, 3-{2-[6-Propyl-4-(3-trifluoromethyl-5,6-dihydro-8H-[1,2,4]triazolo[4,3-a]pyrazin-7-yl)-thieno[2,3-d]pyrimidin-2-ylamino]-ethyl}-thiazolidin-4-one] yielded a Ki of 61 nM. The IC50 in assay [2] was 100 nM.

`CCCc1cc2c(N3CCn4c(nnc4C(F)(F)F)C3)nc(N[C@@H]3CCNC3)nc2s1` [Example 1-130, [6-Propyl-4-(3-trifluoromethyl-5,6-dihydro-8H-[1,2,4]triazolo[4,3-a]pyrazin-7-yl)-thieno[2,3-d]pyrimidin-2-yl]-(R)-pyrrolidin-3-yl-amine] displayed a Ki in assay [1] of 132 nM. For the same compound, the IC50 in assay [2] came to 320 nM.

As to `CCCc1cc2c(N3CCn4c(nnc4C(F)(F)F)C3)nc(Nc3nc(C(=O)O)cs3)nc2s1` [Example 1-132, 2-[6-Propyl-4-(3-trifluoromethyl-5,6-dihydro-8H-[1,2,4]triazolo[4,3-a]pyrazin-7-yl)thieno[2,3-d]pyrimidin-2-ylamino]thiazole-4-carboxylic acid], the affinity in assay [1] corresponds to a Ki of 100 nM. Further, the IC50 in assay [2] was 47 nM.

As to `CCCc1cc2c(N3CCn4c(nnc4C(F)(F)F)C3)nc(N3CCNc4ncccc43)nc2s1` [Example 1-134, 1-[6-Propyl-4-(3-trifluoromethyl-5,6-dihydro-8H-[1,2,4]triazolo[4,3-a]pyrazin-7-yl)thieno[2,3-d]pyrimidin-2-yl]-1,2,3,4-tetrahydro-pyrido[2,3-b]pyrazine], the affinity in assay [1], expressed as Ki, was 869 nM. In addition, the IC50 in assay [2] worked out at 1000 nM.

Take `CCc1cc2c(N3CCn4c(nnc4C(F)(F)F)C3)nc(N3CCNC(=O)C3)nc2s1` [Example 2-2, 4-[6-Ethyl-4-(3-trifluoromethyl-5,6-dihydro-8H-[1,2,4]triazolo[4,3-a]pyrazin-7-yl)-thieno[2,3-d]pyrimidin-2-yl]-piperazin-2-one]: the Ki in assay [1] was 832 nM. The IC50 in assay [2] was 97 nM.

In turn, `CCc1cc2c(N3CCn4c(nnc4C(F)(F)F)C3)nc(NCCO)nc2s1` [Example 2-5, 2-[6-Ethyl-4-(3-trifluoromethyl-5,6-dihydro-8H-[1,2,4]triazolo[4,3-a]pyrazin-7-yl)-thieno[2,3-d]pyrimidin-2-ylamino]-ethanol] came in with a Ki in assay [1] of 857 nM. The IC50 in assay [2] was 710 nM.

Regarding `CCc1cc2c(N3CCn4c(nnc4C(F)(F)F)C3)nc(N(CCO)CCO)nc2s1` [Example 2-6, 2-[[6-Ethyl-4-(3-trifluoromethyl-5,6-dihydro-8H-[1,2,4]triazolo[4,3-a]pyrazin-7-yl)-thieno[2,3-d]pyrimidin-2-yl]-(2-hydroxy-ethyl)-amino]-ethanol], the affinity in assay [1] corresponds to a Ki of 715 nM. In assay [2], the IC50 was 835 nM.

In the case of `CCc1cc2c(N3CCn4c(nnc4C(F)(F)F)C3)nc(N3CCNCC3)nc2s1` [Example 2-7, 7-(6-Ethyl-2-piperazin-1-yl-thieno[2,3-d]pyrimidin-4-yl)-3-trifluoromethyl-5,6,7,8-tetrahydro-[1,2,4]triazolo[4,3-a]pyrazine], in assay [1], the inhibition constant (Ki) turned out to be 669 nM. The IC50 in assay [2] was 210 nM.

With `CCc1cc2c(N3CCn4c(nnc4C(F)(F)F)C3)nc(N3CCN(C)CC3)nc2s1` [Example 2-10, 7-[6-Ethyl-2-(4-methyl-piperazin-1-yl)-thieno[2,3-d]pyrimidin-4-yl]-3-trifluoromethyl-5,6,7,8-tetrahydro-[1,2,4]triazolo[4,3-a]pyrazine], in assay [1], the Ki worked out at 773 nM. The half-inhibitory concentration (IC50) in assay [2] is 220 nM.

`CC(C)c1cc2c(N3CCn4c(nnc4C(F)(F)F)C3)nc(N3CCNC(=O)C3)nc2s1` [Example 2-12, 4-[6-isopropyl-4-(3-trifluoromethyl-5,6-dihydro-8H-[1,2,4]triazolo[4,3-a]pyrazin-7-yl)-thieno[2,3-d]pyrimidin-2-yl]-piperazin-2-one]: the affinity in assay [1] corresponds to a Ki of 2900 nM. Further, in assay [2], the IC50 was 460 nM.

`CCCCc1cc2c(N3CCn4c(nnc4C(F)(F)F)C3)nc(N3CCNC(=O)C3)nc2s1` [Example 2-14, 4-[6-Butyl-4-(3-trifluoromethyl-5,6-dihydro-8H-[1,2,4]triazolo[4,3-a]pyrazin-7-yl)-thieno[2,3-d]pyrimidin-2-yl]-piperazin-2-one]: the Ki in assay [1] amounted to 329 nM. Besides, the IC50 in assay [2] was 100 nM.

Take `CCCCc1cc2c(N3CCn4c(nnc4C(F)(F)F)C3)nc(NCCO)nc2s1` [Example 2-15, 2-[6-Butyl-4-(3-trifluoromethyl-5,6-dihydro-8H-[1,2,4]triazolo[4,3-a]pyrazin-7-yl)-thieno[2,3-d]pyrimidin-2-ylamino]-ethanol]: in assay [1], the affinity, expressed as Ki, was 223 nM. Also, the IC50 in assay [2] came to 240 nM.

Compound `CCCCc1cc2c(N3CCn4c(nnc4C(F)(F)F)C3)nc(N3CCN(C)CC3)nc2s1` [Example 2-16, 7-[6-Butyl-2-(4-methyl-piperazin-1-yl)-thieno[2,3-d]pyrimidin-4-yl]-3-trifluoromethyl-5,6,7,8-tetrahydro-[1,2,4]triazolo[4,3-a]pyrazine] had a Ki in assay [1] of 817 nM. In addition, the IC50 in assay [2] was 188 nM.

`CC(C)Cc1cc2c(N3CCn4c(nnc4C(F)(F)F)C3)nc(N3CCNC(=O)C3)nc2s1` [Example 2-17, 4-[6-Isobutyl-4-(3-trifluoromethyl-5,6-dihydro-8H-[1,2,4]triazolo[4,3-a]pyrazin-7-yl)-thieno[2,3-d]pyrimidin-2-yl]-piperazin-2-one] had a Ki in assay [1] of 440 nM. Also, the IC50 in assay [2] stood at 367 nM.

Compound `CC(C)Cc1cc2c(N3CCn4c(nnc4C(F)(F)F)C3)nc(N3CC[C@@H](O)C3)nc2s1` [Example 2-18, (R)-1-[6-Isobutyl-4-(3-trifluoromethyl-5,6-dihydro-8H-[1,2,4]triazolo[4,3-a]pyrazin-7-yl)-thieno[2,3-d]pyrimidin-2-yl]-pyrrolidin-3-ol] registered a Ki in assay [1] of 310 nM. The IC50 in assay [2] was found to be 330 nM.

In assay [1], `O=C1CN(c2nc(N3CCn4c(nnc4C(F)(F)F)C3)c3cc(CCC(F)(F)F)sc3n2)CCN1` [Example 2-19, 4-[4-(3-Trifluoromethyl-5,6-dihydro-8H-[1,2,4]triazolo[4,3-a]pyrazin-7-yl)-6-(3,3,3-trifluoro-propyl)-thieno[2,3-d]pyrimidin-2-yl]-piperazin-2-one] came in with a Ki of 550 nM. Besides, the IC50 in assay [2] is 362 nM.

On to `O[C@@H]1CCN(c2nc(N3CCn4c(nnc4C(F)(F)F)C3)c3cc(CCC(F)(F)F)sc3n2)C1` [Example 2-20, (R)-1-[4-(3-Trifluoromethyl-5,6-dihydro-8H-[1,2,4]triazolo[4,3-a]pyrazin-7-yl)-6-(3,3,3-trifluoro-propyl)-thieno[2,3-d]pyrimidin-2-yl]-pyrrolidin-3-ol], for which the Ki in assay [1] was determined as 40 nM. Further, the IC50 in assay [2] was determined as 260 nM.

In assay [1], `CCCc1cc2c(N3CCn4c(nnc4C(F)(F)F)C3)nc(OCC(O)CO)nc2s1` (centres unmarked) [Example 3-1, 3-[6-Propyl-4-(3-trifluoromethyl-5,6-dihydro-8H-[1,2,4]triazolo[4,3-a]pyrazin-7-yl)-thieno[2,3-d]pyrimidin-2-yloxy]-propane-1,2-diol] registered a Ki of 31 nM. Further, the IC50 in assay [2] came to 140 nM.

Regarding `CCCc1cc2c(N3CCn4c(nnc4C(F)(F)F)C3)nc(OCC(CO)CO)nc2s1` [Example 3-2, 2-[6-Propyl-4-(3-trifluoromethyl-5,6-dihydro-8H-[1,2,4]triazolo[4,3-a]pyrazin-7-yl)-thieno[2,3-d]pyrimidin-2-yloxymethyl]-propane-1,3-diol], the affinity in assay [1] corresponds to a Ki of 17 nM. Further, in assay [2], the IC50 worked out at 200 nM.

`CCCc1cc2c(N3CCn4c(nnc4C(F)(F)F)C3)nc(OCCO)nc2s1` [Example 3-3, 2-[6-Propyl-4-(3-trifluoromethyl-5,6-dihydro-8H-[1,2,4]triazolo[4,3-a]pyrazin-7-yl)-thieno[2,3-d]pyrimidin-2-yloxy]-ethanol]: the Ki in assay [1] stood at 30 nM. In addition, the IC50 in assay [2] is 113 nM.

In turn, `CCCc1cc2c(N3CCn4c(nnc4C(F)(F)F)C3)nc(OCCOC)nc2s1` [Example 3-4, 7-[2-(2-Methoxy-ethoxy)-6-propyl-thieno[2,3-d]pyrimidin-4-yl]-3-trifluoromethyl-5,6,7,8-tetrahydro-[1,2,4]triazolo[4,3-a]pyrazine] had a Ki in assay [1] of 230 nM. Besides, the IC50 in assay [2] worked out at 170 nM.

`CCCc1cc2c(N3CCn4c(nnc4C(F)(F)F)C3)nc(OC3CCOC3)nc2s1` (centres unmarked) [Example 3-5, 7-[6-Propyl-2-(tetrahydro-furan-3-yloxy)-thieno[2,3-d]pyrimidin-4-yl]-3-trifluoromethyl-5,6,7,8-tetrahydro-[1,2,4]triazolo[4,3-a]pyrazine] gave a Ki in assay [1] of 26 nM. The IC50 in assay [2] worked out at 91 nM.
